From patent publication US20150105252A1, “SUBSTITUTED PYRAZOLES AS HERBICIDES” (E I DU PONT DE NEMOURS AND COMPANY, priority 2013, published 2015)

Assays:
[1] = tested on: pigweed; assay: Test A preemergence; type: in vivo, Amaranthus retroflexus
Summary of the method: (§1)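 Greenhouse test in loam soil/sand blend; compounds formulated in non-phytotoxic solvent with surfactant, applied as preemergence directed soil spray or postemergence to plants 2–10 cm tall at one- to two-leaf stage. Injury rated visually versus untreated controls after approximately 10 days on a 0 (no effect) to 100 (complete control) scale.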

[2] = tested on: pigweed; assay: Test A postemergence; type: in vivo, Amaranthus retroflexus
Summary of the method: as §1

[3] = tested on: velvetleaf; assay: Test A preemergence; type: in vivo, Abutilon theophrasti
Summary of the method: as §1

[4] = tested on: morningglory; assay: Test A preemergence; type: in vivo, Ipomoea spp.
Summary of the method: as §1

[5] = tested on: rice; assay: Test B flood; type: in vivo, Oryza sativa; settings: 250 g ai/ha, visual rating on 0 to 100 scale (0 no effect, 100 complete control), 13 to 15 days
Summary of the method: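 Plants were grown to the 2-leaf stage and pots flooded to 3 cm above soil. Compounds were applied directly into the paddy water, with depth kept for the test. After 13–15 days in greenhouse, response was rated visually against controls on a 0 (no effect) to 100 (complete control) scale.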

[6] = tested on: barnyardgrass; assay: Test A preemergence; type: in vivo, Echinochloa crus-galli
Summary of the method: as §1

[7] = tested on: crabgrass, large; assay: Test A postemergence; type: in vivo, Digitaria sanguinalis
Summary of the method: as §1

[8] = tested on: crabgrass, large; assay: Test A preemergence; type: in vivo, Digitaria sanguinalis
Summary of the method: as §1

[9] = tested on: velvetleaf; assay: Test A postemergence; type: in vivo, Abutilon theophrasti
Summary of the method: as §1

[10] = tested on: barnyardgrass; assay: Test A postemergence; type: in vivo, Echinochloa crus-galli
Summary of the method: as §1

[11] = tested on: corn; assay: Test C preemergence; type: in vivo, Zea mays; settings: for Plant response rating (scale of 0 to 100), Corn: Preemergence, 250 g ai/ha; for Corn plant response rating / Plant response rating, Corn: preemergence; for Plant response rating, Corn: scale 0 to 100, 0 = no effect, 100 = complete control
Source text: (§2) Seeds of plant species selected from blackgrass (Alopecurus myosuroides), ryegrass, Italian (Italian ryegrass, Lolium multiflorum), wheat (winter wheat, Triticum aestivum), galium (catchweed bedstraw, Galium aparine), corn (Zea mays), crabgrass, large (large crabgrass, Digitaria sanguinalis), foxtail, giant (giant foxtail, Setaria faberii), johnsongrass (Sorghum halepense), lambsquarters (Chenopodium album), morningglory (Ipomoea coccinea), nutsedge, yellow (yellow nutsedge, Cyperus esculentus), pigweed (redroot pigweed, Amaranthus retroflexus), ragweed (common ragweed, Ambrosia elation), soybean (Glycine max), barnyardgrass (Echinochloa crus-galli), oilseed rape (Brassica napus), waterhemp (common waterhemp, Amaranthus rudis), oat, wild (wild oat, Avena fatua), kochia (Kochia scoparia), Surinam grass (Brachiaria decumbens), foxtail, green (green foxtail, Setaria viridis), goosegrass (Eleusine indica), bromegrass, downy (downy bromegrass, Bromus tectorum), nightshade (eastern black nightshade, Solanum ptycanthum), cocklebur (common cocklebur, Xanthium strumarium), cupgrass, woolly (woolly cupgrass, Eriochloa villosa), bermudagrass (Cynodon dactylon), sunflower, (common oilseed sunflower, Helianthus annuus), Russian thistle (Salsola kali), and velvetleaf (Abutilon theophrasti) were planted into a blend of loam soil and sand and treated preemergence with test chemicals formulated in a non-phytotoxic solvent mixture which included a surfactant.
(§3) At the same time, plants selected from these crop and weed species and also chickweed (common chickweed, Stellaria media), canarygrass (littleseed canarygrass, Phalaris minor), and deadnettle (henbit deadnettle, Lamium amplexicaule), were planted in pots containing Redi-Earth® planting medium (Scotts Company, 14111 Scottslawn Road, Marysville, Ohio 43041) comprising spaghnum peat moss, vermiculite, wetting agent and starter nutrients and treated with postemergence applications of test chemicals formulated in the same manner. Plants ranged in height from 2 to 18 cm (1- to 4-leaf stage) for postemergence treatments. Treated plants and controls were maintained in a greenhouse for 13 to 15 days, after which time all species were compared to controls and visually evaluated. Plant response ratings, summarized in Table C, are based on a scale of 0 to 100 where 0 is no effect and 100 is complete control. A dash (-) response means no test result.

[12] = tested on: corn; assay: Test A preemergence; type: in vivo, Zea mays
Summary of the method: as §1

[13] = tested on: oilseed rape; assay: Test C preemergence; type: in vivo, Brassica napus; settings: for Plant response rating (scale of 0 to 100), Oilseed Rape: Preemergence, 250 g ai/ha; for Oilseed Rape plant response rating / Plant response rating, Oilseed Rape: preemergence; for Plant response rating, Oilseed Rape: scale 0 to 100, 0 = no effect, 100 = complete control
Source text: as §2, §3

[14] = tested on: wheat; assay: Test C preemergence; type: in vivo, Triticum aestivum; settings: for Plant response rating (scale of 0 to 100), Wheat: Preemergence, 250 g ai/ha; for Wheat plant response rating / Plant response rating, Wheat: preemergence; for Plant response rating, Wheat: scale 0 to 100, 0 = no effect, 100 = complete control
Source text: as §2, §3

[15] = tested on: blackgrass; assay: Test C preemergence; type: in vivo, Alopecurus myosuroides; settings: for Plant response rating (scale of 0 to 100), Blackgrass: Preemergence, 250 g ai/ha; for Blackgrass plant response rating / Plant response rating, Blackgrass: preemergence; for Plant response rating, Blackgrass: scale 0 to 100, 0 = no effect, 100 = complete control
Source text: as §2, §3

[16] = Preemergence, 500 g ai/ha, 0 to 100 scale, 0 no effect, 100 complete control
[17] = preemergence, 125 g ai/ha, visual injury, 0 to 100 scale, approx. 10 days
[18] = Postemergence, 500 g ai/ha, visual rating after approx. 10 days, 0 to 100 scale (0 no effect, 100 complete control)
[19] = postemergence, 125 g ai/ha, about 10 days, visual rating on 0 to 100 scale (0 no effect, 100 complete control)
[20] = Postemergence, 125 g ai/ha, 0 to 100 scale, 0 no effect, 100 complete control
[21] = 31 g ai/ha, visual rating, scale 0 to 100 (0 no effect, 100 complete control), 13 to 15 days
[22] = 125 g ai/ha, scale 0 to 100, 0 is no effect, 100 is complete control
[23] = preemergence, 500 g ai/ha, visual injury after approx. 10 days, 0 to 100 scale (0 no effect, 100 complete control)
[24] = Postemergence, 500 g ai/ha, 0 to 100 scale (0 no effect, 100 complete control)
[25] = 62 g ai/ha, scale 0 to 100 (0 no effect, 100 complete control), 13 to 15 days
[26] = preemergence, 125 g ai/ha, visual injury approx. 10 days after treatment

SMILES | Pigweed plant response rating [1, 17] | Pigweed plant response rating [2, 19] | Velvetleaf plant response rating [3, 17] | Morningglory plant response rating [4, 17] | Plant response rating, Rice [5] | Barnyardgrass plant response rating [6, 17] | Crabgrass, Large plant response rating [7, 19] | Crabgrass, Large plant response rating [8, 17] | Velvetleaf plant response rating [9, 19] | Plant response rating (scale of 0 to 100), Corn [11] | Corn plant response rating [11, 21] | Corn plant response rating [11, 22] | Corn plant response rating [12, 17] | Pigweed plant response rating [1, 23] | Barnyardgrass plant response rating [6, 23] | Plant response rating (scale of 0 to 100), Oilseed Rape [13] | Oilseed Rape plant response rating [13, 21] | Barnyardgrass plant response rating [10, 19] | Pigweed plant response rating [2, 24] | Barnyardgrass plant response rating [10, 24] | other results
CCc1cc(C(=O)NCC(F)(F)F)nn1Cc1ccnc(C(F)(F)F)c1 [Compound 78, 5-ethyl-N-(2,2,2-trifluoroethyl)-1-[[(2-trifluoromethyl)-4-pyridinyl]methyl]-1H-pyrazole-3-carboxamide] | 100 | 100 | 100 | 100 | 50 | 100 | 90 | 100 | 100 | 98 | 60 | 95 | 60 |  |  |  |  |  |  |  | Pigweed plant response rating [1, 16]: 100; Pigweed plant response rating [2, 18]: 100; Velvetleaf plant response rating [3, 16]: 100; Morningglory plant response rating [4, 16]: 100; Barnyardgrass plant response rating [6, 16]: 100; Crabgrass, Large plant response rating [7, 18]: 100; Crabgrass, Large plant response rating [8, 16]: 100; Velvetleaf plant response rating [9, 18]: 100; Barnyardgrass plant response rating [10, 20]: 50; Barnyardgrass plant response rating [10, 18]: 90; Plant response rating, Corn ([11]; 62 g ai/ha, 13 to 15 days): 65; Corn plant response rating [12, 16]: 70
CCCc1cc(C(=O)NCC)nn1Cc1ccnc(C(F)(F)F)c1 [Compound 95] | 100 | 100 | 90 | 100 | 20 | 100 | 90 | 100 | 90 | 95 | 35 | 80 | 50 | 100 | 100 | 100 | 100 | 90 |  |  | Pigweed plant response rating [2, 18]: 100; Velvetleaf plant response rating [3, 23]: 100; Morningglory plant response rating [4, 23]: 100; Crabgrass, Large plant response rating [7, 18]: 100; Plant response rating, Oilseed Rape ([13]; 62 g ai/ha, 13 to 15 days): 100; Oilseed Rape plant response rating [13, 22]: 100; Crabgrass, Large plant response rating [8, 23]: 100; Velvetleaf plant response rating [9, 18]: 100; Barnyardgrass plant response rating [10, 18]: 100; Plant response rating (scale of 0 to 100), Wheat [14]: 90; Wheat plant response rating [14, 21]: 5; Plant response rating, Wheat ([14]; 62 g ai/ha, 13 to 15 days): 55; Wheat plant response rating [14, 22]: 60; Plant response rating, Corn ([11]; 62 g ai/ha, 13 to 15 days): 50; Corn plant response rating [12, 23]: 90; Plant response rating (scale of 0 to 100), Blackgrass [15]: 100; Blackgrass plant response rating [15, 21]: 100; Plant response rating, Blackgrass ([15]; 62 g ai/ha, 13 to 15 days): 100; Blackgrass plant response rating [15, 22]: 100
CCONC(=O)c1cc(CC)n(Cc2cc(C(F)(F)F)no2)n1 [Compound 125] | 100 | 70 |  |  | 10 | 80 |  |  |  | 45 | 0 | 10 |  | 100 | 100 | 95 | 30 | 30 | 100 | 90 | Oilseed Rape plant response rating [13, 25]: 60; Oilseed Rape plant response rating [13, 22]: 95; Plant response rating (scale of 0 to 100), Wheat [14]: 50; Wheat plant response rating [14, 21]: 0; Wheat plant response rating [14, 25]: 0; Wheat plant response rating [14, 22]: 5; Corn plant response rating [11, 25]: 5; Plant response rating (scale of 0 to 100), Blackgrass [15]: 80; Blackgrass plant response rating [15, 21]: 0; Blackgrass plant response rating [15, 25]: 10; Blackgrass plant response rating [15, 22]: 60
CCOc1cc(C(=O)NC2CC2)nn1Cc1ccnc(OC(F)F)c1 [Compound 133] | 100 | 100 |  |  | 20 | 90 |  |  |  | 95 | 5 |  |  | 100 | 100 | 100 | 60 | 90 | 100 | 100 | Oilseed Rape plant response rating [13, 25]: 100; Plant response rating, Oilseed Rape ([13]; 125 g ai/ha, 13 to 15 days): 100; Plant response rating (scale of 0 to 100), Wheat [14]: 90; Wheat plant response rating [14, 21]: 0; Wheat plant response rating [14, 25]: 45; Plant response rating, Wheat ([14]; 125 g ai/ha, 13 to 15 days): 90; Corn plant response rating [11, 25]: 25; Plant response rating, Corn ([11]; 125 g ai/ha, 13 to 15 days): 45; Plant response rating (scale of 0 to 100), Blackgrass [15]: 95; Blackgrass plant response rating [15, 21]: 85; Blackgrass plant response rating [15, 25]: 90; Plant response rating, Blackgrass ([15]; 125 g ai/ha, 13 to 15 days): 90
CCCc1cc(C(=O)NCC(F)(F)F)nn1Cc1cc(C(F)(F)F)nn1C [Compound 138] | 100 | 100 | 100 | 90 | 50 | 100 | 100 | 100 | 60 |  |  |  | 10 | 100 | 100 |  |  | 100 | 100 | 100 | Velvetleaf plant response rating [3, 23]: 100; Morningglory plant response rating [4, 23]: 100; Crabgrass, Large plant response rating [7, 24]: 100; Crabgrass, Large plant response rating [8, 23]: 100; Velvetleaf plant response rating [9, 24]: 100; Corn plant response rating [12, 23]: 90
CCc1cc(C(=O)NCC(F)(F)F)nn1Cc1cc(OC(F)F)nn1C [Compound 206] |  |  |  |  | 0 |  |  |  |  |  |  |  |  |  | 90 |  |  | 0 | 100 | 60 | Pigweed plant response rating (0 to 100 scale) [1, 26]: 90; Pigweed plant response rating [2, 20]: 80; Barnyardgrass plant response rating (0 to 100 scale, 0 is no effect, 100 is complete control) [6, 26]: 0
